Results taken from publication PMC5766975, “Production of eicosapentaenoic acid by application of a delta-6 desaturase with the highest ALA catalytic activity in algae” (Microbial Cell Factories, 2018).
Read-outs that look alike come from different tables or passages of the source.

Legend:
TpFADS6 [1] = biological target: T1, TpFADS6 (Thalassiosira pseudonana, UniProt Q4G2T1); experiment: fatty acid composition of substrate-fed yeast transformants by GC (conversion to GLA); assay type: cell-based; design: gene desI; full-length, synthetic codon-optimised gene, 1455-bp fragment; expressed from pYES2/NT C (vector-encoded tag) in Saccharomyces cerevisiae INVSc1; conditions: single substrate fed to Saccharomyces cerevisiae INVSc1 expressing the desaturase; delta-6 desaturation; free acid fed
TpFADS6 [2] = biological target: T1, TpFADS6; design: gene desI; conditions: single substrate fed to Saccharomyces cerevisiae INVSc1 expressing the desaturase; delta-6 desaturation; free acid fed

T1 sequence (Q4G2T1 entry or part of it): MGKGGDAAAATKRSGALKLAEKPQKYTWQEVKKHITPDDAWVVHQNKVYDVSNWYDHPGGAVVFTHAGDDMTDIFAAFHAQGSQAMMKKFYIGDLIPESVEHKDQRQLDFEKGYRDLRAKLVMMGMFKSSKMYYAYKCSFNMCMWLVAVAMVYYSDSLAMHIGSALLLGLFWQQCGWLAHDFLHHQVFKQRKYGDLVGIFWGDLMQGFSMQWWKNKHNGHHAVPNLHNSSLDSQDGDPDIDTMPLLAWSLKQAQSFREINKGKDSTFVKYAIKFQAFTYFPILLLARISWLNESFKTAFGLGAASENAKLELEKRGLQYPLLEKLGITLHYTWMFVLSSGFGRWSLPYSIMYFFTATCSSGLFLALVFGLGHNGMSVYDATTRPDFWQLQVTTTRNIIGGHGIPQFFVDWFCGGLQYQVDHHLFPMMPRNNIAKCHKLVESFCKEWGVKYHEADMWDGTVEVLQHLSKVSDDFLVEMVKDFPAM

SMILES | fatty acid composition of substrate-fed yeast transformants by GC (conversion to) (TpFADS6 [1]) | fatty acid composition of substrate-fed yeast transformants by GC (conversion to) (TpFADS6 [2])
CCCCC/C=C\C/C=C\CCCCCCCC(=O)O [LA, linoleic acid] | both substrates were catalyzed by TpFADS6 | 
CC/C=C\C/C=C\C/C=C\CCCCCCCC(=O)O [ALA, α-linolenic acid] |  | both substrates were catalyzed by TpFADS6
